Target: T1, SMS2 (Homo sapiens, UniProt Q8NHU3)
T1 construct: CAO, Yu research team, National Protein Scientific Center (Shanghai); supplied by an outside laboratory, not a commercial vendor
T1 sequence (Q8NHU3 1-365): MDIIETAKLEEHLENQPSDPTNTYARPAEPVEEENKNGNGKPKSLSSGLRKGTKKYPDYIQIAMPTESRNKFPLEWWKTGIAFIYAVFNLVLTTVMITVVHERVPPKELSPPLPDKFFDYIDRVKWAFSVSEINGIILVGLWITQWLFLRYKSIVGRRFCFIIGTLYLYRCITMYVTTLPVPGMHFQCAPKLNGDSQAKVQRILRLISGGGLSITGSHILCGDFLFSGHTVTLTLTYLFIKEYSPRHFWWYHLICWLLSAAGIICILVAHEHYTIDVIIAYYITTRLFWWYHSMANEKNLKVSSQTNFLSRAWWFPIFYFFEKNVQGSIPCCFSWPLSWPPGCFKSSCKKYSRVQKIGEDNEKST
Assay: SMS2 inhibitory activity in vitro, HPLC fluorescence quantitative detection (C6-NBD-ceramide to C6-NBD-SM)
Assay type: biochemical
Conditions: SMS2 pure enzyme, 37°C, 30 minutes, average of two measurements; for inhibition at 1 µM: 1 µM test compound, read-out: Inhibition rate on SMS2 at C/µM 1; for inhibition at 10 µM: 10 µM test compound, read-out: Inhibition rate on SMS2 at C/µM 10
Source text: • 1. Electro-thermostatic water bath, from Shanghai Yiheng Technology Co., Ltd.); • 2. Vortex Mixer, with model ID of XW-80A, from Shanghai Jingke Industrial Co., Ltd.; • 3. […] High Performance Liquid Chromatography Agilent 1100, equipped with a quaternary pump, vacuum degassing, and FLD fluorescence detector, from Agilent Technologies, Palo Alto, CA, USA; • 5. HPLC column COSMOSIL 5C18-MS-II (4.6mm I.D. X 250mm); • 6. […] The organic solvents used in the present disclosure were purchased from Shanghai National Reagent Company, wherein methanol was pure chromatography; water was ultra-pure water which is filtrated by Milli-Q pump, deionized and ultra-filtrated with 0.22 µm membrane; and other biological consumables were purchased from domestic companies; • 8. Preparation of test compound solutions: each test compound was accurately weighed and dissolved in an appropriate volume of DMSO to prepare a 10 mmol/L stock solution. The stock solution was then diluted with an appropriate volume of DMSO to achieve the desired working concentration; • 9. SMS2 pure enzyme, DDM solution and buffer solution were provided by CAO, Yu research team from National Protein Scientific Center (Shanghai).
79 µl of the diluted enzyme solution were transferred into a 1.5 mL EP tube, 1 µl of inhibitor DMSO solution were added thereto, vortexing for 15 seconds, followed by standing at room temperature for 5 minutes. 20 µl of a mixed solution of DMPC and C6-NBD-ceramide were added, vortexing for 15 seconds, and incubated at 37°C for 30 minutes. 200 µl of anhydrous ethanol were added to quench the reaction, vortexing for 15 seconds. 200 µl of the reaction solution were taken out and stored at 4°C and avoided light for HPLC detection.
The peak area values of A(sm) and A(ceramide) in the HPLC chromatogram corresponding to C6-NBD-SM and C6-NBD-Ceramide in the DMSO group and inhibitor group samples were analyzed and recorded, and the inhibition rate of the test compound was calculated according to the following formula. Inhibition rate = (Peak area values of DMSO group−Peak area values of Inhibitor group)/(Peak area values of DMSO group) × 100% [formula]

SMILES | inhibition at 1 µM [%] | inhibition at 10 µM [%]
CCCOc1ccc(OCCC)c(COc2ccsc2C(=O)Nc2cccnc2)c1 [1-93, 3-(2,5-dipropoxybenzyloxy)-N-(pyridin-3-yl)thiophene-2-carboxamide] |  | 50
O=C(Nc1cccnc1)c1sccc1OCc1ccccc1F [1-44, 3-(2-fluorobenzyloxy)-N-(pyridin-3-yl)thiophene-2-carboxamide] | 54 | 
O=C(Nc1cccnc1)c1sccc1OCc1cccc(OC(F)(F)F)c1 [1-55, 3-(3-(trifluoromethoxy)benzyloxy)-N-(pyridin-3-yl)thiophene-2-carboxamide] |  | 65
O=C(Nc1cccnc1)c1nccnc1OCc1ccccc1 [12-20] |  | 16
O=C(Nc1cc(Cl)cc(Cl)n1)c1sccc1OCc1ccccc1 [1-20, 3-benzyloxy-N-(4,6-Dichloropyridin-2-yl)thiophene-2-carboxamide] | 50 | 
O=C(Nc1cccnc1)c1sccc1OCc1ccc(OC(F)(F)F)cc1 [1-54, 3-(4-(trifluoromethoxy)benzyloxy)-N-(pyridin-3-yl)thiophene-2-carboxamide] |  | 57
O=C(Nc1cccnc1)c1sccc1OCc1ccccc1OCCCCCCCl [1-76, 3-(2-(6-chlorohexyloxy)benzyloxy)-N-(pyridin-3-yl)thiophene-2-carboxamide] | 93 | 
O=C(Nc1cccnc1)c1sccc1OCc1ccccc1C(F)(F)F [1-59, 3-(2-(trifluoromethyl)benzyloxy)-N-(pyridin-3-yl)thiophene-2-carboxamide] | 71 | 
O=C(Nc1cccnc1)c1sccc1OCc1cccc(C(F)(F)F)c1 [1-97, 3-(3-trifluoromethylbenzyloxy)-N-(pyridin-3-yl)thiophene-2-carboxamide] | 80 | 
O=C(Nc1cccnc1)c1sccc1OCc1ccc(F)cc1 [1-46, 3-(4-fluorobenzyloxy)-N-(pyridin-3-yl)thiophene-2-carboxamide] |  | 70
O=C(Nc1cccnc1)c1sccc1OCc1ccccc1I [1-87, 3-(yloxy)-N-(pyridin-3-yl)thiophene-2-carboxamide] | 82 | 
O=C(Nc1cccnc1)c1sccc1OCc1ccccc1Br [1-86, 3-(2-bromobenzyloxy)-N-(pyridin-3-yl)thiophene-2-carboxamide] | 86 | 
O=C(Nc1cccnc1)c1sccc1OCc1cccc2cccnc12 [1-12, N-(pyridin-3-yl)-3-(quinolin-8-ylmethoxy)thiophene-2-carboxamide] | 68 | 
O=C(Nc1cncnc1)c1sccc1OCc1ccccc1 [1-64, 3-benzyloxy-N-(pyrimidin-5-yl)thiophene-2-carboxamide] |  | 51
CC(C)(O)COc1ccc(F)cc1COc1ccsc1C(=O)Nc1cccnc1 [1-8, 3-(5-fluoro-2-(2-hydroxy-2-methylpropoxy)benzyloxy)-N-(pyridin-3-yl)thiophene-2-carboxamide] |  | 56
O=C(Nc1cnccc1Cl)c1sccc1OCc1ccccc1 [1-91, 3-benzyloxy-N-(4-chloropyridin-3-yl)thiophene-2-carboxamide] |  | 56

Further lines, results first:

inhibition at 1 µM [%] | inhibition at 10 µM [%] | SMILES
80 |  | CC(C)Oc1ccccc1COc1ccsc1C(=O)Nc1cccnc1 [1-82, 3-(2-isopropoxybenzyloxy)-N-(pyridin-3-yl)thiophene-2-carboxamide]
 | 18 | O=C(Nc1cccnc1)c1cncnc1OCc1ccccc1 [12-19, 4-benzyloxy-N-(pyridin-3-yl)pyrimidin-5-carboxamide]
 | 66 | N#Cc1ccccc1COc1ccsc1C(=O)Nc1cccnc1 [1-50, 3-(2-cyanobenzyloxy)-N-(pyridin-3-yl)thiophene-2-carboxamide]
78 |  | COc1ccc2ccccc2c1COc1ccsc1C(=O)Nc1cccnc1 [1-16, 3-[(2-methoxynaphthalen-1-yl)methoxy]-N-(pyridin-3-yl)thiophene-2-carboxamide]
78 |  | Cc1cccc(C)c1COc1ccsc1C(=O)Nc1cccnc1 [1-60, 3-(2,6-dimethylbenzyloxy)-N-(pyridin-3-yl)thiophene-2-carboxamide]
86 |  | O=C(Nc1cccnc1)c1sccc1OCc1cccc2ccccc12 [1-10, 3-(naphthalen-1-ylmethoxy)-N-(pyridin-3-yl)thiophene-2-carboxamide]
 | 10 | O=C(Nc1ccc(C(F)(F)F)nc1)c1sccc1OCc1ccccc1 [12-14]
 | 50 | COc1ccc(COc2ccsc2C(=O)Nc2cccnc2)cc1 [1-56, 3-(4-methoxybenzyloxy)-N-(pyridin-3-yl)thiophene-2-carboxamide]
 | 27 | O=C(Nc1cccnc1)c1ccncc1OCc1ccccc1 [12-17, 3-benzyloxy-N-(pyridin-3-yl)pyridin-4-carboxamide]
 | 60 | N#Cc1cccc(COc2ccsc2C(=O)Nc2cccnc2)c1 [1-51, 3-(3-cyanobenzyloxy)-N-(pyridin-3-yl)thiophene-2-carboxamide]
 | 93 | O=C(Nc1cccnc1)c1sccc1OCc1ccccc1[N+](=O)[O-] [1-21, 3-(2-nitrobenzyloxy)-N-(pyridin-3-yl)thiophene-2-carboxamide]
 | 57 | CN(C(=O)c1sccc1OCc1ccccc1)c1cccnc1 [1-62, 3-benzyloxy-N-methyl-(pyridin-3-yl)thiophene-2-carboxamide]
 | 97 | O=C(Nc1cccnc1)c1sccc1OCc1c(Cl)cccc1Cl [1-3, 3-(2,6-dichlorobenzyloxy)-N-(pyridin-3-yl)thiophene-2-carboxamide]
-5 |  | O=C(Nc1ccc2c(c1)oc1ccccc12)c1sccc1OCc1ccccc1 [12-6, 3-(benzyloxy)-N(dibenzo[b,d]furan-3-yl)thiophene-2-carboxamide]
 | 65 | O=C(Nc1cccnc1)c1sccc1OCc1cccs1 [1-77, 3-(thiophen-2-ylmethoxy)-N-(pyridin-3-yl)thiophene-2-carboxamide]
67 |  | O=C(Nc1cccnc1)c1sccc1OCc1cccc(F)c1 [1-45, 3-(3-fluorobenzyloxy)-N-(pyridin-3-yl)thiophene-2-carboxamide]
 | 23 | O=C(Nc1ccnnc1)c1sccc1OCc1ccccc1 [12-2, 3-benzyloxy-N-(pyridazin-4-yl)thiophene-2-carboxamide]
 | 50 | O=C(O)CCCCCOc1ccccc1COc1ccsc1C(=O)Nc1cccnc1 [1-17, 6-(2-[(2-(pyridin-3-ylcarbamoyl)thiophene-3-yl)oxymethyl]phenoxy)hexanoic acid]
50 |  | O=C(Nc1cncc(F)c1)c1sccc1OCc1ccccc1 [1-92, 3-benzyloxy-N-(5-fluoropyridin-3-yl)thiophene-2-carboxamide]
3 |  | O=C(Nc1cc(F)ccn1)c1sccc1OCc1ccccc1 [12-4, 3-benzyloxy-N-(4-fluoropyridin-2-yl)thiophene-2-carboxamide]
-8 |  | O=C(Nc1nncs1)c1sccc1OCc1ccccc1 [12-3, 3-benzyloxy-N-(1,3,4-thiadiazol-2-yl)thiophene-2-carboxamide]
-30 |  | O=C(Nc1cc(F)c(F)c(F)c1)c1sccc1OCc1ccccc1 [12-10]
97 |  | CCCCCCOc1c(Cl)cccc1COc1ccsc1C(=O)Nc1cccnc1 [1-80, 3-(3-chloro-2-(hexyloxy)benzyloxy)-N-(pyridin-3-yl)thiophene-2-carboxamide]

— patent EP4768480A1, “ALKOXY THIOPHENE ACYL ARYLAMINE COMPOUNDS AND USE THEREOF” (priority 2024, dated 2025)
